Experimental data reported in US12018059B2, “Human amylin analog polypeptides and methods of use” (Intarcia Therapeutics, Inc., priority 2018, dated 2024).
Positions of bridges follow the written chain, without caps; N, C: chain ends. Residues, ends and D or L forms follow the SMILES beside them.

experiment: Pharmacokinetics, 3-hour intravenous infusion of linear (non-acylated) polypeptides; design: species or system Sprague-Dawley rats; conditions: rat, in vivo, 0.1 mg/kg; linear polypeptides; 3-hour intravenous infusion, 0.100 mg/kg, male Sprague-Dawley rats; read-out: CL
Description: Peptides were dissolved in sterile saline and administered as a 3-hour intravenous infusion to non-fasted male Sprague-Dawley rats (n=3 per group) via femoral vein cannula at a final dose of 0.100 mg/kg. […] Blood samples (approximately 250 μL) were collected for pharmacokinetic analysis via a jugular vein cannula at 0.25, 0.5, 1, 2, 3, 3.17, 3.33, 3.5, 4, 4.5, 5, and 6 hr post-start of infusion (long method) or at 1, 1.5, 2, 2.5, and 3 hr post-start of infusion (steady-state screening method). All samples were collected into microtainer tubes containing K2EDTA as anticoagulant and 25 μL of a protease inhibitor cocktail. Plasma was prepared by centrifugation and stored at −80° C. until analysis. The results of this analysis are shown in Table 9 and few exemplars in FIGS. 3a-3b.
A 60 μL aliquot of each plasma sample was placed into to a 96-well plate. To each well was added 6 μL of 0.5% Tween-20. Plates were then vortexed mixed for 10 minutes at 1200 rpm before 180 μL of 0.1% TFA in 2:1 ethanol:acetonitrile containing an appropriate internal standard was added to each well. Plates were vortex mixed for 5 min at 1300 rpm, and then centrifuged for 10 min at 2844×g. Supernatants (180 μL) were placed into a clean 96-well plate and evaporated under a nitrogen stream at 45° C. Residues were reconstituted in 80 μL of 20% acetonitrile (aq) containing 0.1% formic acid.
A […] aliquot of each plasma sample was diluted with […] of 10 mM ammonium acetate (pH 6.8) containing an appropriate internal standard and loaded onto an Oasis WCX microElution plate (Waters Corporation, Milford, MA) that had been pre-conditioned with […] of methanol and […] of deionized water. Samples were washed with […] of 5% ammonium hydroxide (aq) followed by […] of 20% acetonitrile in water. The analyte was eluted with […] of 5% formic acid in 75:25 acetonitrile:water. The eluent was dried under a nitrogen stream. Residues were reconstituted in 80 μL of 20% acetonitrile (aq) containing 0.1% formic acid.
All calibration standards were prepared in control rat plasma containing K2EDTA and protease inhibitor cocktail.
Samples and standards were analyzed by TurbolonSpray™ UPLC-MS/MS using a system consisting of a CTC HTS PAL auto-injector (Leap, Carrboro, NC), an Agilent Infinity 1290 system with column oven (Palo Alto, CA), a Valco switching valve (Houston, TX), and either an AB Sciex API 5600 TripleTOF™ or Sciex API 4000QTrap mass spectrometer (Framingham, MA). Samples were injected onto a 2.1×50 mm reverse phase C18 analytical column, typically a Waters CORTECS UPLC C18+, 1.6 μm (Waters Corporation, Milford, MA) or similar. […] Initial conditions consisted of 90% A and 10% B. The organic component was increased to 95% B over a period of 3-4 minutes, depending on the peptide. Typical flow rates were 600 μL/min. The column temperature was held constant at 40 or 50° C. Peptides were quantified by monitoring one or more product ions produced from a multiply charged parent ion.

clearance	SMILES
22.8 mL/min/kg	CC[C@H](C)[C@H](NC(=O)[C@@H]1CCCN1C(=O)CNC(=O)[C@H](Cc1ccccc1)NC(=O)[C@H](CC(N)=O)NC(=O)[C@H](CC(N)=O)NC(=O)[C@H](CO)NC(=O)[C@H](CO)NC(=O)[C@H](CCCNC(=N)N)NC(=O)[C@H](Cc1c[nH]cn1)NC(=O)[C@H](CC(C)C)NC(=O)[C@H](Cc1ccc(O)cc1)NC(=O)[C@H](CC(N)=O)NC(=O)[C@H](C)NC(=O)[C@H](CC(C)C)NC(=O)[C@H](CCCNC(=N)N)NC(=O)[C@H](CCC(N)=O)NC(=O)[C@@H](NC(=O)[C@H](C)NC(=O)[C@@H]1CSSC[C@H](NC(=O)[C@@H](N)CO)C(=O)N[C@@H](CC(N)=O)C(=O)N[C@@H]([C@@H](C)O)C(=O)N[C@@H](C)C(=O)N[C@@H](CO)C(=O)N1)[C@@H](C)O)C(=O)N[C@@H](CC(C)C)C(=O)N1CCC[C@H]1C(=O)N1CCC[C@H]1C(=O)N[C@H](C(=O)N[C@@H](CC(N)=O)C(=O)N[C@H](C(=O)NCC(=O)N[C@@H](CO)C(=O)N[C@@H](CC(N)=O)C(=O)N[C@H](C(=O)N[C@@H](Cc1ccc(O)cc1)C(N)=O)[C@@H](C)O)C(C)C)[C@@H](C)O [Compound A61] (H-SCNTASCATQRLANYLHRSSNNFGPILPPTNVGSNTY-NH2; disulfide 2-7)
14.2 mL/min/kg	CC[C@H](C)[C@H](NC(=O)[C@@H]1CCCN1C(=O)CNC(=O)[C@H](Cc1ccccc1)NC(=O)[C@H](CC(N)=O)NC(=O)[C@H](CC(N)=O)NC(=O)[C@H](CO)NC(=O)[C@H](CO)NC(=O)[C@H](Cc1c[nH]cn1)NC(=O)[C@@H](NC(=O)[C@H](CC(C)C)NC(=O)[C@H](CCC(=O)O)NC(=O)[C@H](CC(N)=O)NC(=O)[C@H](C)NC(=O)[C@H](CC(C)C)NC(=O)[C@H](CCCNC(=N)N)NC(=O)[C@H](CCC(N)=O)NC(=O)[C@@H](NC(=O)[C@H](C)NC(=O)[C@@H]1CSSC[C@H](NC(=O)[C@@H](N)CO)C(=O)N[C@@H](CC(N)=O)C(=O)N[C@@H]([C@@H](C)O)C(=O)N[C@@H](CO)C(=O)N[C@@H]([C@@H](C)O)C(=O)N1)[C@@H](C)O)C(C)C)C(=O)N[C@@H](CC(C)C)C(=O)N1CCC[C@H]1C(=O)N1CCC[C@H]1C(=O)N[C@H](C(=O)N[C@@H](CC(N)=O)C(=O)N[C@H](C(=O)NCC(=O)N[C@@H](CO)C(=O)N[C@@H](CC(N)=O)C(=O)N[C@H](C(=O)N[C@@H](Cc1ccc(O)cc1)C(N)=O)[C@@H](C)O)C(C)C)[C@@H](C)O [Compound A44] (H-SCNTSTCATQRLANELVHSSNNFGPILPPTNVGSNTY-NH2; disulfide 2-7)

same assay, conditions: rat, in vivo, iv, 0.1 mg/kg

clearance	SMILES
17.7 mL/min/kg	CC[C@H](C)[C@H](NC(=O)[C@@H]1CCCN1C(=O)CNC(=O)[C@H](Cc1ccccc1)NC(=O)[C@H](CC(N)=O)NC(=O)[C@H](CC(N)=O)NC(=O)[C@H](CO)NC(=O)[C@H](CO)NC(=O)[C@H](CCCNC(=N)N)NC(=O)[C@H](Cc1c[nH]cn1)NC(=O)[C@H](CC(C)C)NC(=O)[C@H](CCC(=O)O)NC(=O)[C@H](CC(N)=O)NC(=O)[C@H](CO)NC(=O)[C@H](CC(C)C)NC(=O)[C@H](CCCNC(=N)N)NC(=O)[C@H](CO)NC(=O)[C@@H](NC(=O)[C@H](C)NC(=O)[C@@H]1CSSC[C@H](NC(=O)[C@@H](N)CO)C(=O)N[C@@H](CC(N)=O)C(=O)N[C@@H]([C@@H](C)O)C(=O)N[C@@H](CO)C(=O)N[C@@H]([C@@H](C)O)C(=O)N1)[C@@H](C)O)C(=O)N[C@@H](CC(C)C)C(=O)N1CCC[C@H]1C(=O)N1CCC[C@H]1C(=O)N[C@H](C(=O)N[C@@H](CCCCN)C(=O)N[C@H](C(=O)NCC(=O)N[C@@H](CO)C(=O)N[C@@H](CCC(=O)O)C(=O)N[C@H](C(=O)N[C@@H](Cc1ccc(O)cc1)C(N)=O)[C@@H](C)O)C(C)C)[C@@H](C)O [Compound A33] (H-SCNTSTCATSRLSNELHRSSNNFGPILPPTKVGSETY-NH2; disulfide 2-7)
23.2 mL/min/kg	CC[C@H](C)[C@H](NC(=O)[C@@H]1CCCN1C(=O)CNC(=O)[C@H](Cc1ccccc1)NC(=O)[C@H](CCC(=O)O)NC(=O)[C@H](CC(N)=O)NC(=O)[C@H](CO)NC(=O)[C@H](CO)NC(=O)[C@H](CCCCN)NC(=O)[C@@H](NC(=O)[C@H](CC(C)C)NC(=O)[C@H](Cc1ccccc1)NC(=O)[C@H](CC(N)=O)NC(=O)[C@H](C)NC(=O)[C@H](CC(C)C)NC(=O)[C@H](CCCNC(=N)N)NC(=O)[C@H](CCC(N)=O)NC(=O)[C@@H](NC(=O)[C@H](C)NC(=O)[C@@H]1CSSC[C@H](NC(=O)[C@@H](N)CO)C(=O)N[C@@H](CC(N)=O)C(=O)N[C@@H]([C@@H](C)O)C(=O)N[C@@H](CO)C(=O)N[C@@H]([C@@H](C)O)C(=O)N1)[C@@H](C)O)C(C)C)C(=O)N[C@@H](CC(C)C)C(=O)N1CCC[C@H]1C(=O)N1CCC[C@H]1C(=O)N[C@H](C(=O)N[C@@H](CCCCN)C(=O)N[C@H](C(=O)NCC(=O)N[C@@H](CO)C(=O)N[C@@H](CCC(=O)O)C(=O)N[C@H](C(=O)N[C@@H](Cc1ccc(O)cc1)C(N)=O)[C@@H](C)O)C(C)C)[C@@H](C)O [Compound A43] (H-SCNTSTCATQRLANFLVKSSNEFGPILPPTKVGSETY-NH2; disulfide 2-7)
13.6 mL/min/kg	CC[C@H](C)[C@H](NC(=O)[C@@H]1CCCN1C(=O)CNC(=O)[C@H](Cc1ccccc1)NC(=O)[C@H](CCC(=O)O)NC(=O)[C@H](CC(N)=O)NC(=O)[C@H](CO)NC(=O)[C@H](CO)NC(=O)[C@H](CCCCN)NC(=O)[C@@H](NC(=O)[C@H](CC(C)C)NC(=O)[C@H](Cc1ccccc1)NC(=O)[C@H](CC(N)=O)NC(=O)[C@H](CO)NC(=O)[C@H](CC(C)C)NC(=O)[C@H](CCCNC(=N)N)NC(=O)[C@H](CCC(N)=O)NC(=O)[C@@H](NC(=O)[C@H](C)NC(=O)[C@@H]1CSSC[C@H](NC(=O)[C@@H](N)CO)C(=O)N[C@@H](CC(N)=O)C(=O)N[C@@H]([C@@H](C)O)C(=O)N[C@@H](CO)C(=O)N[C@@H]([C@@H](C)O)C(=O)N1)[C@@H](C)O)C(C)C)C(=O)N[C@@H](CC(C)C)C(=O)N1CCC[C@H]1C(=O)N1CCC[C@H]1C(=O)N[C@H](C(=O)N[C@@H](CCCCN)C(=O)N[C@H](C(=O)NCC(=O)N[C@@H](CO)C(=O)N[C@@H](CCC(=O)O)C(=O)N[C@H](C(=O)N[C@@H](Cc1ccc(O)cc1)C(N)=O)[C@@H](C)O)C(C)C)[C@@H](C)O [Compound A4] (H-SCNTSTCATQRLSNFLVKSSNEFGPILPPTKVGSETY-NH2; disulfide 2-7)
18.8 mL/min/kg	CC[C@H](C)[C@H](NC(=O)[C@@H]1CCCN1C(=O)CNC(=O)[C@H](Cc1ccccc1)NC(=O)[C@H](CC(N)=O)NC(=O)[C@H](CC(N)=O)NC(=O)[C@H](CO)NC(=O)[C@H](CO)NC(=O)[C@H](CCCCN)NC(=O)[C@H](CCC(N)=O)NC(=O)[C@H](CC(C)C)NC(=O)[C@H](Cc1ccccc1)NC(=O)[C@H](CC(N)=O)NC(=O)[C@H](C)NC(=O)[C@H](CC(C)C)NC(=O)[C@H](CCCNC(=N)N)NC(=O)[C@H](CO)NC(=O)[C@@H](NC(=O)[C@H](C)NC(=O)[C@@H]1CSSC[C@H](NC(=O)[C@@H](N)CO)C(=O)N[C@@H](CC(N)=O)C(=O)N[C@@H]([C@@H](C)O)C(=O)N[C@@H](CO)C(=O)N[C@@H]([C@@H](C)O)C(=O)N1)[C@@H](C)O)C(=O)N[C@@H](CC(C)C)C(=O)N1CCC[C@H]1C(=O)N1CCC[C@H]1C(=O)N[C@H](C(=O)N[C@@H](CCCCN)C(=O)N[C@H](C(=O)NCC(=O)N[C@@H](CO)C(=O)N[C@@H](CCC(=O)O)C(=O)N[C@H](C(=O)N[C@@H](Cc1ccc(O)cc1)C(N)=O)[C@@H](C)O)C(C)C)[C@@H](C)O [Compound A62] (H-SCNTSTCATSRLANFLQKSSNNFGPILPPTKVGSETY-NH2; disulfide 2-7)
